The results in this text go back to US5140009A (Tap Pharmaceuticals, Inc., priority 1990, dated 1992).

The test concerns the target T1, LHRH receptors (Rattus norvegicus, UniProt P30969).
T1 construct: Pituitary membranes containing LHRH receptors are prepared in batches from quick-frozen rat pituitaries; tissue Hilltop Labs; host or cells: rat pituitary membranes
T1 sequence (P30969 1-327): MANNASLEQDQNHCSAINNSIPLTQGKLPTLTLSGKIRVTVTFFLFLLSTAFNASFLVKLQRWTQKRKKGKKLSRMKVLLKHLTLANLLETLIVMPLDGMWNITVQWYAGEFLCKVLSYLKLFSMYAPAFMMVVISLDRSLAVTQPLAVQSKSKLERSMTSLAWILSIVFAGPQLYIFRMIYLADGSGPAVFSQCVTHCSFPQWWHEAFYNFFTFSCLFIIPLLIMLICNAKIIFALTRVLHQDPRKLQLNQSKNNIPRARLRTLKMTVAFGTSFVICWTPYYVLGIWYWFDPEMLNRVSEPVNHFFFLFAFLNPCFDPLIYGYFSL
The test is described as follows: Receptor Binding (radioligand receptor binding assay). Conditions: table 3, rat pituitary membranes, radioiodinated [D-Leu^6 -des Gly^10 ]-LHRH ethyl amide 50 pM, 2 hours at 4° C.

The mark [1] stands for this setting: read-out: Receptor Binding pkI (converted).

Read-outs that look alike come from different tables or passages of the source. Square brackets hold non-standard residues; d marks the D form. Peptide text beside a SMILES is read from it. * marks the point of attachment. Propanoyl(3-(1-naphthyl)) = O=C(CCc1cccc2ccccc12)*; Propanoyl(3-indol-3-yl) = O=C(CCc1c[nH]c2ccccc12)*; Butyryl(4-indol-3-yl) = O=C(CCCc1c[nH]c2ccccc12)*; Propanoyl(3,3-Ph2) = O=C(CC(c1ccccc1)c1ccccc1)*; Acryloyl(3-(pyridin-3-yl)) = O=C(C=Cc1cccnc1)*; Propanoyl(3-(3-pyridyl)) = O=C(CCc1cccnc1)*; Acetyl(1-naphthyl) = O=C(Cc1cccc2ccccc12)*; Acetyl(2-naphthyl) = O=C(Cc1ccc2ccccc2c1)*; Acetyl(3-pyridyl) = O=C(Cc1cccnc1)*; 1Naphthoyl = O=C(c1cccc2ccccc12)*; dCha = N[C@H](CC1CCCCC1)C(=O)O; X14 = O=C(CCn1ccc2ccccc21)*; X1 = COc1ccccc1C=CC(=O)*; PhAc = O=C(Cc1ccccc1)*; X2 = O=C(C=Cc1ccccc1)*; Bn = c1ccc(C*)cc1

Regarding `CCNC(=O)[C@@H]1CCCN1C(=O)[C@H](CCCNC(=N)N)NC(=O)[C@H](CC(C)C)NC(=O)[C@@H](Cc1c[nH]c2ccccc12)NC(=O)[C@H](Cc1ccc(O)cc1)NC(=O)[C@H](CO)NC(=O)C(Cc1cccc2ccccc12)NC(C)=O` (single isomer, unassigned) [Compound 82, (3-9)[N-Ac-1-Nal^3 -D-Trp^6 -Pro^9 NHEt]LHRH], the Ki under setting [1] was 0.295 nM.
Still for that read-out and setting: as for `CCNC(=O)[C@@H]1CCCN1C(=O)[C@H](CCCNC(=N)N)NC(=O)[C@H](CC(C)C)NC(=O)[C@@H](Cc1c[nH]c2ccccc12)NC(=O)[C@H](Cc1ccc(O)cc1)NC(=O)[C@H](CO)NC(=O)C(Cc1cccc2ccccc12)NC(C)=O` (single isomer, unassigned) [Compound 83, (3-9) [N-Ac-1-Nal^3 -D-Trp^6 -Pro^9 NHEt]LHRH], the figure is 0.123 nM; as for `CCNC(=O)[C@@H]1CCCN1C(=O)[C@H](CCCNC(=N)N)NC(=O)[C@H](CC(C)C)NC(=O)[C@@H](Cc1c[nH]c2ccccc12)NC(=O)[C@H](Cc1ccc(O)cc1)NC(=O)[C@H](CO)NC(=O)[C@H](Cc1c[nH]c2ccccc12)NC(=O)C(CC(=O)N1CCOCC1)Cc1cccc2ccccc12` (single isomer, unassigned) [Compound 130], 0.275 nM.
Same read-out and setting: as for `CCNC(=O)[C@@H]1CCCN1C(=O)[C@H](CCCNC(=N)N)NC(=O)[C@H](CC(C)C)NC(=O)[C@@H](Cc1c[nH]c2ccccc12)NC(=O)[C@H](Cc1ccc(O)cc1)NC(=O)[C@H](CO)NC(=O)[C@H](Cc1c[nH]c2ccccc12)NC(=O)C(CC(=O)N1CCOCC1)Cc1cccc2ccccc12` (single isomer, unassigned) [Compound 131], the figure is 0.631 nM.
As for `CCNC(=O)[C@@H]1CCCN1C(=O)[C@H](CCCNC(=N)N)NC(=O)[C@H](CC(C)C)NC(=O)[C@@H](Cc1c[nH]c2ccccc12)NC(=O)[C@H](Cc1ccc(O)cc1)NC(=O)[C@H](COCc1ccccc1)NC(=O)Cc1ccc2ccccc2c1` [Compound 12, (4-9)[N-(2-Naphthylacetyl)-Ser^4 (OBzl)-D-Trp^6 -Pro^9 -NHEt]LHRH] ({Acetyl(2-naphthyl)}-S(Bn)Y[dW]LRP-NHEt), the Ki under setting [1] is 1.23 nM.
Molecule `CCNC(=O)[C@@H]1CCCN1C(=O)[C@H](CCCNC(=N)N)NC(=O)[C@H](CC(C)C)NC(=O)[C@@H](Cc1c[nH]c2ccccc12)NC(=O)[C@H](Cc1ccc(O)cc1)NC(=O)[C@H](CO)NC(=O)CC(c1ccccc1)c1ccccc1` [Compound 14, (4-9)[N-(3-Diphenylpropionyl)-Ser^4 -D-Trp^6 -Pro^9 -NHEt]LHRH] ({Propanoyl(3,3-Ph2)}-SY[dW]LRP-NHEt) showed a Ki (Receptor Binding pkI) of 15.8 nM.
With `CCNC(=O)[C@@H]1CCCN1C(=O)[C@H](CCCNC(=N)N)NC(=O)[C@H](CC(C)C)NC(=O)[C@@H](Cc1c[nH]c2ccccc12)NC(=O)[C@H](Cc1ccc(O)cc1)NC(=O)[C@H](CO)NC(=O)C=Cc1ccccc1` [Compound 15, (4-9)[N-(cinnamoyl)-Ser^4 -D-Trp^6 -Pro^9 -NHEt] LHRH] (X2-SY[dW]LRP-NHEt), the Ki under setting [1] was 7.76 nM.
Turning to `CCNC(=O)[C@@H]1CCCN1C(=O)[C@H](CCCNC(=N)N)NC(=O)[C@H](CC(C)C)NC(=O)[C@@H](Cc1c[nH]c2ccccc12)NC(=O)[C@H](Cc1ccc(O)cc1)NC(=O)[C@H](CO)NC(=O)C=Cc1ccccc1OC` [Compound 16, (4-9)[N-(ortho-Methoxycinnamoyl)-Ser^4 -D-Trp^6 -Pro^9 -NHEt]LHRH] (X1-SY[dW]LRP-NHEt), the Ki under setting [1] was 1.41 nM.
The same measure, in the same setting: as for `CCNC(=O)[C@@H]1CCCN1C(=O)[C@H](CCCNC(=N)N)NC(=O)[C@H](CC(C)C)NC(=O)[C@@H](Cc1c[nH]c2ccccc12)NC(=O)[C@H](Cc1ccc(O)cc1)NC(=O)[C@H](CO)NC(=O)Cc1ccccc1` [Compound 17, (4-9)[N-(Phenylacetyl)-Ser^4 -D-Trp^6 -Pro^9-NHEt] LHRH] (PhAc-SY[dW]LRP-NHEt), the figure is 6.61 nM.
Consider `CCNC(=O)[C@@H]1CCCN1C(=O)[C@H](CCCN=C(N)N)NC(=O)[C@H](CC(C)C)NC(=O)[C@@H](Cc1c[nH]c2ccccc12)NC(=O)[C@H](Cc1ccc(O)cc1)NC(=O)[C@H](CO)NC(=O)CCc1c[nH]c2ccccc12` [Compound 24, (4-9)[N-(3-(3-Indole)propionyl)-Ser^4 -D-Trp^6 -Pro^9 -NHEt] LHRH] ({Propanoyl(3-indol-3-yl)}-SY[dW]LRP-NHEt), for which the Ki under setting [1] was 3.72 nM.
On the same count and under the same terms, under `CCNC(=O)[C@@H]1CCCN1C(=O)[C@H](CCCNC(=N)N)NC(=O)[C@H](CC(C)C)NC(=O)[C@@H](CC1CCCCC1)NC(=O)[C@H](Cc1ccc(O)cc1)NC(=O)[C@H](COCc1ccccc1)NC(=O)Cc1cccc2ccccc12` [Compound 33, (4-9)[N-(1-Naphthylacetyl)-Ser^4 (OBzl)-D-Cha^6 -Pro^9 -NHEt]LHRH] ({Acetyl(1-naphthyl)}-S(Bn)Y[dCha]LRP-NHEt) stands 13.8 nM.
Still for that read-out and setting: as for `CCNC(=O)[C@@H]1CCCN1C(=O)[C@H](CCCNC(=N)N)NC(=O)[C@H](CC(C)C)NC(=O)[C@@H](CC1CCCCC1)NC(=O)[C@H](Cc1ccc(O)cc1)NC(=O)[C@H](CO)NC(=O)CCn1ccc2ccccc21` [Compound 34, (4-9)[N-(3-(1-Indole)propionyl)-Ser^4 -D-Cha^6 -Pro^9 -NHEt]LHRH] (X14-SY[dCha]LRP-NHEt), the figure is 41.7 nM.
Same read-out and setting: under `CCNC(=O)[C@@H]1CCCN1C(=O)[C@H](CCCNC(=N)N)NC(=O)[C@H](CC(C)C)NC(=O)[C@@H](CCCNC(=N)N)NC(=O)[C@H](Cc1ccc(O)cc1)NC(=O)[C@H](CO)NC(=O)CCc1c[nH]c2ccccc12` [Compound 35, (4-9)[N-(3-(3-Indole)propionyl)-Ser^4 -D-Arg^6 -Pro^9 -NHEt]LHRH] ({Propanoyl(3-indol-3-yl)}-SY[dR]LRP-NHEt) stands 204 nM; under `CCNC(=O)[C@@H]1CCCN1C(=O)[C@H](CCCNC(=N)N)NC(=O)[C@H](CC(C)C)NC(=O)[C@@H](CC1CCCCC1)NC(=O)[C@H](Cc1ccc(O)cc1)NC(=O)[C@H](CO)NC(=O)CCCc1c[nH]c2ccccc12` [Compound 36, (4-9)[N-(4-(3-Indole)butyryl)-Ser^4 -D-Cha^6 -Pro^9 -NHEt]LHRH] ({Butyryl(4-indol-3-yl)}-SY[dCha]LRP-NHEt), 17 nM; under `CCNC(=O)[C@@H]1CCCN1C(=O)[C@H](CCCNC(=N)N)NC(=O)[C@H](CC(C)C)NC(=O)[C@@H](CCCNC(=N)N)NC(=O)[C@H](Cc1ccc(O)cc1)NC(=O)[C@H](CO)NC(=O)Cc1cccc2ccccc12` [Compound 37, (4-9)[N-(1-Naphthylacetyl)-Ser^4 -D-Arg^6 -Pro^9 -NHEt] LHRH] ({Acetyl(1-naphthyl)}-SY[dR]LRP-NHEt), 20.4 nM.
On to `CCNC(=O)[C@@H]1CCCN1C(=O)[C@H](CCCNC(=N)N)NC(=O)[C@H](CC(C)C)NC(=O)[C@@H](CCCNC(=N)N)NC(=O)[C@H](Cc1ccc(O)cc1)NC(=O)[C@H](COCc1ccccc1)NC(=O)Cc1cccc2ccccc12` [Compound 38, (4-9)[N-(1-Naphthylacetyl)-Ser^4 (OBzl)-D-Arg^6 -Pro^9 -NHEt]LHRH] ({Acetyl(1-naphthyl)}-S(Bn)Y[dR]LRP-NHEt), for which the Ki under setting [1] was 28.8 nM.
Consider `CCNC(=O)[C@@H]1CCCN1C(=O)[C@H](CCCNC(=N)N)NC(=O)[C@H](CC(C)C)NC(=O)[C@@H](CCCNC(=N)N)NC(=O)[C@H](Cc1ccc(O)cc1)NC(=O)[C@H](CO)NC(=O)c1cccc2ccccc12` [Compound 39, (4-9)[N-(1-Naphthoyl)-Ser^4 -D Arg^6 -Pro^9 -NHEt] LHRH] (1Naphthoyl-SY[dR]LRP-NHEt), for which the Ki under setting [1] is 117 nM.
Same read-out and setting: as for `CCNC(=O)[C@@H]1CCCN1C(=O)[C@H](CCCNC(=N)N)NC(=O)[C@H](CC(C)C)NC(=O)[C@@H](CC(C)C)NC(=O)[C@H](Cc1ccc(O)cc1)NC(=O)[C@H](CO)NC(=O)Cc1cccnc1` [Compound 40, (4-9)[N-(3-Pyridylacetyl)-Ser4-D-Leu^6 -Pro^9 -NHEt] LHRH] ({Acetyl(3-pyridyl)}-SY[dL]LRP-NHEt), the figure is 4370 nM; as for `CCNC(=O)[C@@H]1CCCN1C(=O)[C@H](CCCN=C(N)N)NC(=O)[C@H](CC(C)C)NC(=O)[C@@H](CC(C)C)NC(=O)[C@H](Cc1ccc(O)cc1)NC(=O)[C@H](CO)NC(=O)CCc1cccnc1` [Compound 41, (4-9)[N-(3-(3-Pyridyl)propionyl)-Ser^4 -D-Leu^6 -Pro^9 -NHEt]LHRH] ({Propanoyl(3-(3-pyridyl))}-SY[dL]LRP-NHEt), 1740 nM; as for `CCNC(=O)[C@@H]1CCCN1C(=O)[C@H](CCCNC(=N)N)NC(=O)[C@H](CC(C)C)NC(=O)[C@@H](Cc1c[nH]c2ccccc12)NC(=O)[C@H](Cc1ccc(O)cc1)NC(=O)[C@H](CO)NC(=O)C=Cc1cccnc1` [Compound 43, (4-9)[N-(3-(3-Pyridyl)acryloyl)-Ser^4 -D-Trp^6 -Pro^9 -NHEt]LHRH] ({Acryloyl(3-(pyridin-3-yl))}-SY[dW]LRP-NHEt), 646 nM.
The same measure, in the same setting: under `CCNC(=O)[C@@H]1CCCN1C(=O)[C@H](CCCNC(=N)N)NC(=O)[C@H](CC(C)C)NC(=O)[C@@H](CCCNC(=N)N)NC(=O)[C@H](Cc1ccc(O)cc1)NC(=O)[C@H](CO)NC(=O)CCc1cccc2ccccc12` [Compound 44, (4-9)[N-(3-(1-Naphthyl)propionyl)-Ser^4 -D-Arg^6 -Pro^9 -NHEt]LHRH] ({Propanoyl(3-(1-naphthyl))}-SY[dR]LRP-NHEt) stands 3.98 nM; under `CCNC(=O)[C@@H]1CCCN1C(=O)[C@H](CCCNC(=N)N)NC(=O)[C@H](CC(C)C)NC(=O)[C@@H](CCCNC(=N)N)NC(=O)[C@H](Cc1ccc(O)cc1)NC(=O)[C@H](COCc1ccccc1)NC(=O)CCc1cccc2ccccc12` [Compound 45, (4-9)[N-(3-(1-Naphthyl)propionyl)-Ser^4 (OBzl)-D-Arg^6 -Pro^9 -NHEt]LHRH] ({Propanoyl(3-(1-naphthyl))}-S(Bn)Y[dR]LRP-NHEt), 6.03 nM.
